In one experiment the target is CK1ε (Homo sapiens, UniProt P49674). Description: fluorescence ligand dot blot with purified kinase at […] pyrvinium. In kind it is binding.
In a further experiment the target is CK1γ1 (Homo sapiens, UniProt Q9HCP0). The description is as above. In kind it is binding.

Counter-ions that a name gives are not always drawn.

CK1γ1, sequence (Q9HCP0 whole entry): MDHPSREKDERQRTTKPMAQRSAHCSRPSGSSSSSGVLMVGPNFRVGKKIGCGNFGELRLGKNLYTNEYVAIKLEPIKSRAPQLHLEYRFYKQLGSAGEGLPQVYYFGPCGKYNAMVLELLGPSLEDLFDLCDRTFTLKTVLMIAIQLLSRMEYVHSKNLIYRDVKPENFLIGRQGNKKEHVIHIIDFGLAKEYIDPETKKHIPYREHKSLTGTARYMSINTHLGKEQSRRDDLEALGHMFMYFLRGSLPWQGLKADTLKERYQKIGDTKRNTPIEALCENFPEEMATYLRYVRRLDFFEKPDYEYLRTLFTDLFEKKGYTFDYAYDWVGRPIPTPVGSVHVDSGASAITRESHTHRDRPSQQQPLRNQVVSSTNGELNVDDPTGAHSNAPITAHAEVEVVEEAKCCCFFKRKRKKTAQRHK
CK1ε, sequence (P49674 whole entry): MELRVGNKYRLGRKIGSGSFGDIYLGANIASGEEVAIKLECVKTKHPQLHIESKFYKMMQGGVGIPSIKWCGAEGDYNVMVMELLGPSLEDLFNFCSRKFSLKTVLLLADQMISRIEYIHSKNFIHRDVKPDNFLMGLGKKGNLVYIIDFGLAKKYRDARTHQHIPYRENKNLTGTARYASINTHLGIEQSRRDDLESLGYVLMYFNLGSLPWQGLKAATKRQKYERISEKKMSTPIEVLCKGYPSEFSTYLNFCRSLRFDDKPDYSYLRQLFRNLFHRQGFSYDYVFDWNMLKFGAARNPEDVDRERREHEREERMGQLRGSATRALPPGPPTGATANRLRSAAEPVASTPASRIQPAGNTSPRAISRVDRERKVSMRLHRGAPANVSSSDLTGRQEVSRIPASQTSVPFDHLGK

As for `Cc1cc(/C=C/c2ccc3cc(N(C)C)ccc3[n+]2C)c(C)n1-c1ccccc1` [compound 1, 6-(dimethylamino)-2-[2-(2,5-dimethyl-1-phenyl-1H-pyrrol-3-yl)ethenyl]-1-me thyl-quinolinium pamoate salt], the “fluorescence ligand dot blot with purified kinase at 10 nM pyrvinium” value on CK1ε and at CK1γ1 was “Pyrvinium binds all full-length CK1 isoforms tested but only activates CK1α” in each case.

For the origin of these results see PMC3681608 (Nature chemical biology, 2010).
